Laboratory results from US20140341922A1, “Method for Overcoming Tolerance to Targeted Anti-Cancer Agent” (SUN R&DB Foundation, priority 2011, published 2014).

What was measured:
Assay type in all cases: cell-based, human
[1] = test system: IGF-1R, EGFR, Src, Akt, mTOR phosphorylation; experiment: Western blot of IGF-1R, EGFR, Src, Akt signaling after cixutumumab
Procedure: Preparation of total cell lysates, Western blot analysis, and immunoprecipitation were performed according to methods described in our previous report (Morgillo et al., 2006).
(§1) Total cell lysates were immunoprecipitated with antibodies against integrin β3, integrin β1, or IgG. The precipitates with protein A agarose were resolved by sodium dodecyl sulfate-polyacrylamide gel electrophoresis (SDS-PAGE) and transferred to a polyvinylidene difluoride (PVDF) membrane. Western blot analysis was performed using specific Abs described as follows, and antigen-antibody complexes were visualized using enhanced chemiluminescence plus kits (Amersham Biosciences, Piscataway, N.J.).
The present inventors investigated the mechanisms involved in the resistance to cixutumumab treatment in HNSCC and NSCLC cells. cixutumumab resistant (LN686, FADU, 226B, 226Br, H596, and H460) or -sensitivity (UMSCC38, OSC19, H1299, and A549m) lines grown in TCP, PCP, UAP, or soft agar were untreated or treated with 25 μg/ml of cixutumumab for 6 h, and then were stimulated with IGF-1 for 30 min. Expression of several proteins were analyzed by Western blot analysis.
Cixutumumab-resistant (LN686, FADU, 226B, 226Br, H596, and H460) or -sensitive (UMSCC38, OSC19, H1299, and A549m) cell lines grown in PCP were untreated or treated with 25 μg/ml of cixutumumab for 7 days, and then were stimulated with 10% FBS for 30 min. Expression of several proteins were analyzed by western blot analysis.
Because cross-talk between EGFR and IGF-1R signalings have been proposed as a major mechanism of a resistance to TKIs of IGF-1R and EGFR (Buck et al., 2008; Morgillo et al., 2006), the present inventors next examined whether cixutumumab treatment induces activation of EGFR and Akt phosphorylation. After cixutumumab-resistant (LN686, FADU, 226B, 226Br, H596, and H460) or -sensitive (UMSCC38, OSC19, H1299, and A549m) cell lines grown in PCPs were treated with cixutumumab, 10% FBS was treated for 30 min. Several phosphorylated proteins and actin were analyzed by western blot analysis. In addition, densitometric analysis was performed to quantify the expression of the proteins for comparisons between cixutumumab-treated and control cells treated with vehicle.
(§2) The LN686 cells grown in PCP were treated with cixutumumab (25 μg/ml) for indicated times prior to stimulation with 10% FBS (FIGS. 14 and 15) or IGF-1 (100 ng/ml) (FIGS. 16 and 17) in the presence or absence of anti-human IGF-1 neutralizing monoclonal antibody (αIGF-1) (FIGS. 15 and 16) for indicated times (FIG. 16) or for 30 min (FIGS. 14, 15, and 17). Immunoprecipitation with whole proteins or integrin β3 antibodies was performed on the presented proteins, and expression of the proteins was analyzed by western blot analysis.
In addition, LN686 cells grown in PCP were treated with cixutumumab (25 μg/ml) for 7 days in the absence of FBS. The results obtained by analyzing p-IGF-1R (Y1131), IGF-1R, p-Src (Y416), Src, p-EGFR (Y845), p-EGFR (Y1068), EGFR, p-Akt (S473), and Akt using western blot analysis. LN686 cells stimulated with 10% serum for 30 min were included as a control.

[2] = test system: integrin β3; experiment: Immunoprecipitation of integrin β3 / β1 with Src, FAK, p85
Procedure: as §1, §2

[3] = test system: Src and FAK phosphorylation; experiment: Fluorescent immunostaining of pSrc and pFAK
From the text: The present inventors reconfirmed the western blot analysis results in which Src and FAK phosphorylation was increased due to cixutumumab in the presence of IGF-1 by fluorescent immunostaining. Cultured LN686 cells in UAPs with cixutumumab alone or in combination with IGF-1 or an integrin β3 neutralizing antibody, treated with IGF-1 to fix, and then Src and FAK phosphorylation was confirmed. […] Such an action of the cixutumumab was abolished by the IGF-1 or integrin β3 neutralizing antibody, and therefore it was reconfirmed that the action of cixutumumab for inducing the Src and FAK phosphorylation was mediated by integrin β3 in the presence of IGF-1.
According to the Previous study, a modified integrin β3 expression vector was prepared by substituting an amino acid sequence (CYDMKTTC, residues 177-184) of the integrin β3 essential for the IGF-1 bond with an amino acid sequence (CTSEQNC, residues 187-193) of integrin β1 at a corresponding position. An empty vector or a modified integrin β3 expression vector was transfected into FADU cells. These cells were plated, and cultured along with cixutumumab (25 μg/ml) alone or in combination with IGF-1 or an integrin β3 neutralizing antibody for 4 h. After the culture, IGF-1 […] was treated for 1 hour, and the cells were recovered, washed with PBS, and fixed with 10% formalin for 2 h. […]

With “cixutumumab: humanized mAb targeting IGF-1R, provided by ImClone Systems” the “IGF-1-induced IGF-1R and Akt phosphorylation, and total IGF-1R expression” value ([1]; 25 μg/mL for 6 h, LN686 and OSC19 cells in TCPs, PCPs, UAPs, soft agar) was “effectively suppressed”, the “phosphorylation of Akt and downstream effectors mTOR, p70S6K, S6” value ([1]; LN686 (cixutumumab-resistant)) was “not to inhibit or to even increase” and the “time IGF-1R remained dephosphorylated” value ([1]; LN686 in PCP, 25 μg/ml, no change in IGF-1R level) was 3 h. The “levels of p-IGF-1R, p-EGFR (Y845), p-Src (Y416), and p-Akt (S473)” value ([1]; LN686 in PCP, 30 min pretreatment, 10% FBS stimulation) was “decreased”, the “phosphorylation of Src, FAK, EGFR (Y845), Akt, mTOR” value ([1]; LN686 in PCP, one hour treatment, 10% FBS stimulation) was “rapidly rephosphorylated” and the “phosphorylation of Akt and downstream effectors mTOR, p70S6K, S6” value ([1]; OSC19 (cixutumumab-sensitive)) was “inhibited”. The “EGFR, Src, or Akt phosphorylation” value ([1]; cixutumumab alone, absence of IGF-1 stimulation, LN686) was “failed to induce”, the “phosphorylation of EGFR at Src-specific site (Y845) and of Src (Y416)” value ([1]; cixutumumab-resistant lines in PCPs, 7 days, 10% FBS 30 min) was “increased” and the “phosphorylation of EGFR at Tyr1068” value ([1]; drug-resistant lines in PCPs, 7 days, 10% FBS 30 min) was “increased”. The “FBS-induced associations between integrin β3 and Src or p85 and phosphorylation of FAK and Src” value ([2]; LN686 in PCP, 25 μg/ml, time-dependent) was “enhanced”, the “associations between integrin β1 and p-Src (Y416) or p-FAK (Y861)” value ([2]; after IGF-1 stimulation, cixutumumab pretreatment) was “did not affect” and the “IGF-1-induced Src and FAK phosphorylation in cell membrane” value ([3]; LN686 cells adhered to ECM-coated coverslip) was “did not suppress or somewhat increased”. The “Src and FAK phosphorylation (immunostaining)” value ([3]; LN686 cells in UAPs, in the presence of IGF-1) was “enhanced phosphorylation”.
